# Experimental data from US20240148821A1, “PHARMACEUTICAL USE OF CYCLIC PEPTIDE COMPOUND” (CHUGAI SEIYAKU KABUSHIKI KAISHA, priority 2021, published 2024).
# pIC50: −log10 of the molar value. Numbered stars: 1 amine (or outer) side, 2 acyl side, 3 side chain; on linkers, the order of the positions; unused ones are H or OH. Bridge positions count the residues as written; N and C are the ends. Square brackets hold non-standard residues; d marks the D form. Peptide text beside a SMILES is read from it. * marks the point of attachment. hPhe(3,5-F2-4-CF3) = N[C@@H](CCc1cc(F)c(C(F)(F)F)c(F)c1)C(=O)O; hPhe(3-Cl-4-CF3) = N[C@@H](CCc1ccc(C(F)(F)F)c(Cl)c1)C(=O)O; hPhe(3-F,4-CF3) = N[C@@H](CCc1ccc(C(F)(F)F)c(F)c1)C(=O)O; NEtPhe(4-CF3) = CCN[C@@H](Cc1ccc(C(F)(F)F)cc1)C(=O)O; NMePhe(4-CF3) = CN[C@@H](Cc1ccc(C(F)(F)F)cc1)C(=O)O; NMeAbu(4,4,4-F3) = CN[C@@H](CC(F)(F)F)C(=O)O; NMePhe(4-Me) = CN[C@@H](Cc1ccc(C)cc1)C(=O)O; NMedβ3hAla = C[C@H](CC(=O)[*:2])N(C)[*:1]; NMeGly(cPent) = CN[C@H](C(=O)O)C1CCCC1; NMe3Pal = CN[C@@H](Cc1cccnc1)C(=O)O; NMeCha = CN[C@@H](CC1CCCCC1)C(=O)O; Ala(cPr) = N[C@@H](CC1CC1)C(=O)O; Hyp = O=C(O)[C@@H]1C[C@@H](O)CN1; NMeAhp(2) = CCCCC[C@H](NC)C(=O)O; NMeChg = CN[C@H](C(=O)O)C1CCCCC1; NMeI = CC[C@H](C)[C@H](NC)C(=O)O; NMeD = CN[C@@H](CC(=O)O)C(=O)O; NMeL = CN[C@@H](CC(C)C)C(=O)O; NMeNle = CCCC[C@H](NC)C(=O)O; NMeNva = CCC[C@H](NC)C(=O)O; NMeV = CN[C@H](C(=O)O)C(C)C; d(β3hA) = C[C@@H](N)CC(=O)O; Morpholide = C1CN(*)CCO1; NMeA = CN[C@@H](C)C(=O)O; NMeAib = CNC(C)(C)C(=O)O; Piperidide = C1CCN(*)CC1; Pra = C#CC[C@H](N)C(=O)O; Pyrrolidide = C1CCN(*)C1; Ac5c = NC1(C(=O)O)CCCC1; Aze = O=C(O)[C@@H]1CCN1; Ac4c = NC1(C(=O)O)CCC1; Aib = CC(C)(N)C(=O)O; Sar = CNCC(=O)O
# Legend:
# [1] = system: Human pancreatic cancer cell line AsPC-1 (G12D mutation Kras); experiment: AsPC-1 cell growth inhibition (AsPC-1 CGI); assay type: cell-based; conditions: read-out: AsPC-1 cell growth inhibition, 50% growth inhibitory concentration (IC50 value); 96 hours, CellTiter-Glo, values classified in ranges
# [2] = target: protein-protein interaction between Kras and SOS1 (biotin-tagged human Kras loaded with GDP, His-tagged human SOS1) (Homo sapiens (Human), UniProt P01116, G12D); experiment: Protein-protein interaction inhibition between Kras and SOS1 (KrasG12D-SOS PPI) using AlphaScreen; assay type: biochemical; conditions: AlphaScreen; biotin-tagged human Kras loaded with GDP, His-tagged human SOS1; read-out: KRAS G12D-SOS PPI IC50;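 further: kras produced in E. coli, Ni-coupled donor beads and streptavidin acceptor beads, excitation 680 nm with emission detected at 520–620 nm via singlet oxygen transfer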
Structure (SMILES),pIC50 [1],pIC50 [2]
"C#CC[C@@H]1NC(=O)[C@H](CC(C)C)N(C)C(=O)C[C@@H](C)NC(=O)[C@H](CC(C)C)N(C)C(=O)C(C)(C)NC(=O)[C@H](CC(C)C)N(C)C(=O)[C@H](CCc2ccc(C(F)(F)F)c(F)c2)NC(=O)CN(C)C(=O)[C@H](CC2CCCCC2)N(C)C(=O)CN(C)C(=O)CN(C)C1=O [Compound 1474] (cyclo([Aib][NMeL][d(β3hA)][NMeL][Pra][Sar][Sar][NMeCha][Sar][hPhe(3-F,4-CF3)][NMeL]))",< 6.30,6.62
CC[C@H](C)[C@@H]1NC(=O)[C@H](CC(C)C)N(C)C(=O)C[C@@H](C)N(C)C(=O)[C@H](CC(C)C)NC(=O)C(C)(C)N(C)C(=O)[C@H](CC(C)C)NC(=O)[C@H](CCc2ccc(C(F)(F)F)c(Cl)c2)NC(=O)CN(C)C(=O)[C@H](Cc2ccc(C)cc2)N(C)C(=O)CN(C)C(=O)CN(C)C1=O [Compound 1388] (cyclo(I[Sar][Sar][NMePhe(4-Me)][Sar][hPhe(3-Cl-4-CF3)]L[NMeAib]L[NMedβ3hAla][NMeL])),< 6.30,8.00
CCCC[C@H]1C(=O)NC2(CCCC2)C(=O)N(C)[C@@H](C2CCCCC2)C(=O)N(C)[C@H](C(=O)N2CCCCC2)CC(=O)N(C)[C@@H](CC(C)C)C(=O)N[C@@H]([C@@H](C)CC)C(=O)N(C)CC(=O)N(C)CC(=O)N(C)[C@@H](CC2CCCCC2)C(=O)N(C)CC(=O)N[C@@H](CCc2ccc(C(F)(F)F)c(Cl)c2)C(=O)N1C [Compound 730] ([NMeL]I[Sar][Sar][NMeCha][Sar][hPhe(3-Cl-4-CF3)][NMeNle][Ac5c][NMeChg][NMeD]-Piperidide; lactam N-11),< 6.30,7.92
"CC[C@H](C)[C@@H]1NC(=O)[C@H](CC(C)C)N(C)C(=O)C[C@@H](C(=O)N2CCCCC2)N(C)C(=O)[C@H]([C@@H](C)CC)N(C)C(=O)C2(CCCC2)NC(=O)[C@@H]2CCCN2C(=O)[C@H](CCc2ccc(C(F)(F)F)c(F)c2)NC(=O)CN(C)C(=O)[C@H](Cc2ccc(C)cc2)N(C)C(=O)[C@@H]2CCN2C(=O)[C@H](C)N(C)C1=O [Compound 678] ([NMeL]I[NMeA][Aze][NMePhe(4-Me)][Sar][hPhe(3-F,4-CF3)]P[Ac5c][NMeI][NMeD]-Piperidide; lactam N-11)",≥ 7.70,8.77
"CC[C@H](C)[C@@H]1NC(=O)[C@H](CC(C)C)N(C)C(=O)C[C@@H](C(=O)N2CCCCC2)N(C)C(=O)[C@H](CC(C)C)NC(=O)C(C)(C)N(C)C(=O)[C@@H]2CCCCCC[C@@H](C(=O)N(C)CC(=O)N[C@@H](Cc3cccc(I)c3)C(=O)N2)N(C)C(=O)CN(C)C(=O)CN(C)C1=O [Compound 1411, (1S,7S,10S,14S,17S,26S,32S)-32-[(3-iodophenyl)methyl]-7,14-diisobutyl-3,4,4,9,13,19,22,25,28-nonamethyl-17-[(1S)-1-methylpropyl]-10-(piperidine-1-carbonyl)-3,6,9,13,16,19,22,25,28,31,34-undecazabicyclo[24.8.6]tetracontane-2,5,8,12,15,18,21,24,27,30,33-undecone]",< 6.30,7.09
CCCCC[C@H]1C(=O)N[C@@H]([C@@H](C)CC)C(=O)N(C)[C@@H](C)C(=O)N2CC[C@H]2C(=O)N(C)[C@@H](C2CCCC2)C(=O)N(C)CC(=O)N[C@@H](CCc2ccc(C(F)(F)F)c(Cl)c2)C(=O)N2CCC[C@H]2C(=O)NC2(CCCC2)C(=O)N(C)[C@@H](C2CCCC2)C(=O)N(C)[C@H](C(=O)N2CCOCC2)CC(=O)N1C [Compound 343] ([NMeAhp(2)]I[NMeA][Aze][NMeGly(cPent)][Sar][hPhe(3-Cl-4-CF3)]P[Ac5c][NMeGly(cPent)][NMeD]-Morpholide; lactam N-11),≥ 7.70,9.06
"CCCCC[C@H]1C(=O)N[C@@H]([C@@H](C)CC)C(=O)N[C@@H](C)C(=O)N2CC[C@H]2C(=O)N(C)[C@@H](CC2CCCCC2)C(=O)N(C)CC(=O)N[C@@H](CCc2ccc(C(F)(F)F)c(F)c2)C(=O)N2CCC[C@H]2C(=O)NC2(CCCC2)C(=O)N(C)[C@@H](C2CCCC2)C(=O)N(C)[C@H](C(=O)N(C)C)CC(=O)N1C [Compound 1117] ([NMeAhp(2)]IA[Aze][NMeCha][Sar][hPhe(3-F,4-CF3)]P[Ac5c][NMeGly(cPent)][NMeD]-NMe2; lactam N-11)",≥ 7.70,8.66
CC[C@H](C)[C@@H]1NC(=O)[C@H](CC(C)C)N(C)C(=O)C[C@@H](C(=O)N2CCCC2)N(C)C(=O)[C@H]([C@@H](C)CC)N(C)C(=O)C2(CCCC2)NC(=O)[C@@H]2CCCN2C(=O)[C@H](CCc2ccc(C(F)(F)F)c(Cl)c2)NC(=O)CN(C)C(=O)[C@H](Cc2ccc(C(F)(F)F)cc2)N(C)C(=O)[C@@H]2CCN2C(=O)[C@H](C)N(C)C1=O [Compound 882] ([NMeL]I[NMeA][Aze][NMePhe(4-CF3)][Sar][hPhe(3-Cl-4-CF3)]P[Ac5c][NMeI][NMeD]-Pyrrolidide; lactam N-11),≥ 7.70,9.33
CCC[C@H]1C(=O)N[C@@H]([C@@H](C)CC)C(=O)N(C)CC(=O)N(C)CC(=O)N(C)[C@@H](Cc2ccc(C)cc2)C(=O)N(C)CC(=O)N[C@@H](CCc2ccc(C(F)(F)F)c(Cl)c2)C(=O)N2C[C@H](OCC)C[C@H]2C(=O)NC2(CCCC2)C(=O)N(C)[C@@H](C2CCCCC2)C(=O)N(C)[C@H](C(=O)N2CCCC2)CC(=O)N1C [Compound 1285] ([NMeNva]I[Sar][Sar][NMePhe(4-Me)][Sar][hPhe(3-Cl-4-CF3)][Hyp](Et)[Ac5c][NMeChg][NMeD]-Pyrrolidide; lactam N-11),≥ 7.70,9.28
CCO[C@@H]1C[C@H]2C(=O)NC3(CCC3)C(=O)N(C)[C@@H](C3CCCC3)C(=O)N(C)[C@H](C)CC(=O)N(C)[C@@H](CC(C)C)C(=O)N[C@@H]([C@@H](C)CC)C(=O)N(C)[C@@H](C)C(=O)N3CC[C@H]3C(=O)N(CC)[C@@H](Cc3ccc(C(F)(F)F)cc3)C(=O)N(C)CC(=O)N[C@@H](CCc3ccc(C(F)(F)F)c(Cl)c3)C(=O)N2C1 [Compound 594] (cyclo([Ac4c][NMeGly(cPent)][NMedβ3hAla][NMeL]I[NMeA][Aze][NEtPhe(4-CF3)][Sar][hPhe(3-Cl-4-CF3)][Hyp](Et))),≥ 7.70,9.27
CCO[C@@H]1C[C@H]2C(=O)NC3(CCCC3)C(=O)N(C)[C@@H](C3CCCC3)C(=O)N(C)[C@H](C(=O)N3CCOCC3)CC(=O)N(C)[C@@H](CC(C)C)C(=O)N[C@@H]([C@@H](C)CC)C(=O)N(C)[C@@H](C)C(=O)N3CC[C@H]3C(=O)N(C)[C@@H](CC3CCCCC3)C(=O)N(C)CC(=O)N[C@@H](CCc3ccc(C(F)(F)F)c(Cl)c3)C(=O)N2C1 [Compound 1259] ([NMeL]I[NMeA][Aze][NMeCha][Sar][hPhe(3-Cl-4-CF3)][Hyp](Et)[Ac5c][NMeGly(cPent)][NMeD]-Morpholide; lactam N-11),≥ 7.70,9.31
CC[C@H](C)[C@@H]1NC(=O)[C@H](CC(C)C)N(C)C(=O)C[C@@H](C(=O)N(C)C)N(C)C(=O)[C@H](C2CCCC2)N(C)C(=O)C2(CCCC2)NC(=O)[C@@H]2CCCN2C(=O)[C@H](CCc2ccc(C(F)(F)F)c(Cl)c2)NC(=O)CN(C)C(=O)[C@H](CC2CCCCC2)N(C)C(=O)[C@@H]2CCN2C(=O)[C@H](C)N(C)C1=O [Compound 1777] ([NMeL]I[NMeA][Aze][NMeCha][Sar][hPhe(3-Cl-4-CF3)]P[Ac5c][NMeGly(cPent)][NMeD]-NMe2; lactam N-11),≥ 7.70,9.20
"CCO[C@@H]1C[C@H]2C(=O)NC3(CCCC3)C(=O)N(C)[C@@H](C3CCCCC3)C(=O)N(C)[C@H](C(=O)N3CCCC3)CC(=O)N(C)[C@@H](CC(F)(F)F)C(=O)N[C@@H]([C@@H](C)CC)C(=O)N(C)CC(=O)N(C)CC(=O)N(C)[C@@H](Cc3ccc(C)cc3)C(=O)N(C)CC(=O)N[C@@H](CCc3cc(F)c(C(F)(F)F)c(F)c3)C(=O)N2C1 [Compound 1301] ([NMeAbu(4,4,4-F3)]I[Sar][Sar][NMePhe(4-Me)][Sar][hPhe(3,5-F2-4-CF3)][Hyp](Et)[Ac5c][NMeChg][NMeD]-Pyrrolidide; lactam N-11)",≥ 7.70,9.17
CC(C)C[C@H]1C(=O)N[C@@H](CC2CC2)C(=O)N(C)[C@@H](C)C(=O)N2CC[C@H]2C(=O)N(C)[C@@H](CC2CCCCC2)C(=O)N(C)CC(=O)N[C@@H](CCc2ccc(C(F)(F)F)c(Cl)c2)C(=O)N2CCC[C@H]2C(=O)NC2(CCCC2)C(=O)N(C)[C@@H](C(C)C)C(=O)N(C)[C@H](C(=O)N2CCCCC2)CC(=O)N1C [Compound 358] ([NMeL][Ala(cPr)][NMeA][Aze][NMeCha][Sar][hPhe(3-Cl-4-CF3)]P[Ac5c][NMeV][NMeD]-Piperidide; lactam N-11),< 6.30,7.48
CC[C@H](C)[C@@H]1NC(=O)[C@H](CC(C)C)N(C)C(=O)C[C@@H](C)N(C)C(=O)[C@H](C2CCCC2)N(C)C(=O)C2(CCCC2)NC(=O)[C@@H]2CCCN2C(=O)[C@H](CCc2ccc(C(F)(F)F)c(Cl)c2)NC(=O)CN(C)C(=O)[C@H](Cc2ccc(C)cc2)N(C)C(=O)[C@@H]2CCN2C(=O)[C@H](C)N(C)C1=O [Compound 1750] (cyclo([Ac5c][NMeGly(cPent)][NMedβ3hAla][NMeL]I[NMeA][Aze][NMePhe(4-Me)][Sar][hPhe(3-Cl-4-CF3)]P)),≥ 7.70,8.89
CC[C@H](C)[C@@H]1NC(=O)[C@H](C)N(C)C(=O)C[C@@H](C(=O)N2CCCCC2)N(C)C(=O)[C@H](C(C)C)N(C)C(=O)C2(CCCC2)NC(=O)[C@H](Cc2cccnc2)N(C)C(=O)[C@H](CCc2ccc(C(F)(F)F)c(Cl)c2)NC(=O)CN(C)C(=O)[C@H](CC2CCCCC2)N(C)C(=O)CN(C)C(=O)CN(C)C1=O [Compound 519] ([NMeA]I[Sar][Sar][NMeCha][Sar][hPhe(3-Cl-4-CF3)][NMe3Pal][Ac5c][NMeV][NMeD]-Piperidide; lactam N-11),< 6.30,8.70
